Results from article PMC5006990 (PLoS ONE, 2016).
Converted amounts (≈) assume the structure as drawn. Read-outs that look alike come from different tables or passages of the source.

How the values were obtained:
Mtb = conditions: cited from earlier work; for inhibition of the growth of Mtb: in words
Mtb 5 = test: microbe, parasite or virus in culture; type: cell-based, Mycobacterium tuberculosis; conditions: Mycobacterium tuberculosis, 5, read-out: MIC (μg/mL) Mtb 5
Mtb 365 = test: microbe, parasite or virus in culture; type: cell-based, Mycobacterium tuberculosis; conditions: Mycobacterium tuberculosis, 365, read-out: MIC (μg/mL) Mtb 365
Mtb 352 = test: microbe, parasite or virus in culture; type: cell-based, Mycobacterium tuberculosis; conditions: Mycobacterium tuberculosis, 352, read-out: MIC (μg/mL) Mtb 352
Mtb 56 = test: microbe, parasite or virus in culture; type: cell-based, Mycobacterium tuberculosis; conditions: Mycobacterium tuberculosis, 56, read-out: MIC (μg/mL) Mtb 56
Mtb C-31 = test: microbe, parasite or virus in culture; type: cell-based; conditions: Mycobacterium tuberculosis, C31, read-out: MIC (μg/mL) Mtb C-31
[1] = tested on: M. tuberculosis ATCC 35801 (strain Erdman); test: Microtiter broth dilution MIC, Mtb Erdman; conditions: for MIC (μg/mL) Mtb: Erdmann strain (ATCC 35801), screening rounds 1 and 2; for MIC (μg/mL) Mtb Erdman: Table 1 panel
MtbDHFR [2] = molecular target: T1, MtbDHFR (Mycobacterium tuberculosis, UniProt P9WNX1); conditions: in words; cited from earlier work
T1 sequence (P9WNX1 whole entry): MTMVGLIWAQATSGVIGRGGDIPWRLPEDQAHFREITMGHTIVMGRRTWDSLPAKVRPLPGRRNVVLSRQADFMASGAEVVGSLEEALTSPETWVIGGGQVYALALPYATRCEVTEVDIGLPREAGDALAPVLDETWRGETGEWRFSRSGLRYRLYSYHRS

MtbDHFR [3] = molecular target: T1, MtbDHFR; test: biochemical; type: biochemical
HuDHFR = molecular target: T2, HuDHFR (Homo sapiens, UniProt P00374); test: Human DHFR enzyme inhibition (NADPH oxidation at 340 nm); type: biochemical; conditions: triplicate, mean ± SD
T2 construct: made in house
T2 sequence (P00374 1-187): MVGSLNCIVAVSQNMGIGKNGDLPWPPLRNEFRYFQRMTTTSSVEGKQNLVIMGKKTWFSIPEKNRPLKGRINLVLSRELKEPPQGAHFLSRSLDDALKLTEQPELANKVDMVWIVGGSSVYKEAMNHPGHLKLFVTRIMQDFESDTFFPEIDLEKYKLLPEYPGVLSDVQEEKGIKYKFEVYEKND

Mtb 276 = test: microbe, parasite or virus in culture; type: cell-based, Mycobacterium tuberculosis; conditions: Mycobacterium tuberculosis, 276, read-out: MIC (μg/mL) Mtb 276
[4] = tested on: M. smegmatis (parent strain); test: MIC against M. smegmatis parent strain; conditions: Mycolicibacterium smegmatis, read-out: MIC (µg/mL) M. smegmatis (parent strain)
[5] = tested on: M. smegmatis (Overexpressing DHFR Strain 1); test: MIC against M. smegmatis overexpressing DHFR, strain 1; conditions: Mycolicibacterium smegmatis, read-out: MIC (µg/mL) M. smegmatis (Overexpressing DHFR Strain 1)
[6] = tested on: M. smegmatis (Overexpressing DHFR Strain 2); test: MIC against M. smegmatis overexpressing DHFR, strain 2; conditions: Mycolicibacterium smegmatis, read-out: MIC (µg/mL) M. smegmatis (Overexpressing DHFR Strain 2)

Nc1nc(N)c2c(Cl)c(CNc3ccc(C(=O)O)cc3)ccc2n1 [DQn-1]
MIC (Mtb; Glaxo antifolate collection screen): 0.03 µM | MIC (Mtb; Glaxo antifolate library screen): 0.03 µg/mL

NNC(=O)c1ccncc1 [INH, Isoniazid, reference compound]
MIC (Mtb 5): 4 µg/mL (≈ 29.2 µM) | MIC (Mtb 365): 2 µg/mL (≈ 14.6 µM) | MIC (Mtb 352): 1 µg/mL (≈ 7.29 µM) | MIC (Mtb 56): 1 µg/mL (≈ 7.29 µM) | MIC (Mtb C-31): 4 µg/mL (≈ 29.2 µM) | MIC (μg/mL) Mtb [1]: 0.03 µg/mL (≈ 0.219 µM) | MIC (μg/mL) Mtb Erdman [1]: 0.125 µg/mL (≈ 0.911 µM)

CN(Cc1cnc2nc(N)nc(N)c2n1)c1ccc(C(=O)N[C@@H](CCC(=O)O)C(=O)O)cc1 [Methotrexate]
inhibition of the growth of Mtb (Mtb): fail to inhibit the growth

COc1cc(Cc2cnc(N)nc2N)cc(OC)c1OC [TMP, reference compound]
MIC (μg/mL) Mtb [1]: 256 µg/mL (≈ 882 µM)

COc1cc(NCc2ccc3nc(N)nc(N)c3c2C)cc(OC)c1OC [Trimetrexate]
inhibition of the growth of Mtb (Mtb): fail to inhibit the growth | inhibition of the MtbDHFR enzyme (MtbDHFR [2]): potent inhibitors | MIC (μg/mL) Mtb [1]: 4 µg/mL (≈ 10.8 µM)

CCc1nc(N)nc(N)c1C#CCc1cc(OC)c(OC)c(-c2ccncc2)c1 [UCP1039]
IC50 (MtbDHFR [3]; triplicate, mean ± SD, read-out: IC50 (nM) MtbDHFR): 297 ± 38 nM | IC50 (HuDHFR): 495 ± 58 nM | MIC (μg/mL) Mtb [1]: 32 µg/mL (≈ 82.2 µM)

CCc1nc(N)nc(N)c1C#C[C@H](C)c1cc(-c2ccncc2)ccc1OC [UCP1063]
MIC (μg/mL) Mtb [1]: 2 µg/mL (≈ 5.36 µM)

CCc1nc(N)nc(N)c1C#CC(C)c1cc(-c2cncn2C)ccc1OC (stereo not shown) [UCP1084]
MIC (Mtb 5): 4 µg/mL (≈ 10.6 µM) | MIC (Mtb 365): 4 µg/mL (≈ 10.6 µM) | MIC (Mtb 276): 4 µg/mL (≈ 10.6 µM) | MIC (Mtb 352): 4 µg/mL (≈ 10.6 µM) | MIC (Mtb 56): 4 µg/mL (≈ 10.6 µM) | MIC (Mtb C-31): 8 µg/mL (≈ 21.3 µM) | MIC [4]: 1 µg/mL (≈ 2.66 µM) | MIC (μg/mL) Mtb [1]: 2 µg/mL (≈ 5.31 µM) | MIC (μg/mL) Mtb Erdman [1]: 4 µg/mL (≈ 10.6 µM) | MIC [5]: 64 µg/mL (≈ 170 µM) | MIC [6]: 16 µg/mL (≈ 42.5 µM)

CCc1nc(N)nc(N)c1C#C[C@H](C)c1cc2c(c(-c3ccncc3)c1)OCO2 [UCP1098]
IC50 (MtbDHFR [3]): 206 ± 6 nM | MIC (Mtb 5): 8 µg/mL (≈ 20.6 µM) | MIC (Mtb 365): 4 µg/mL (≈ 10.3 µM) | MIC (Mtb 276): 8 µg/mL (≈ 20.6 µM) | MIC (Mtb 352): 8 µg/mL (≈ 20.6 µM) | MIC (Mtb 56): 8 µg/mL (≈ 20.6 µM) | MIC (Mtb C-31): 16 µg/mL (≈ 41.3 µM) | MIC [4]: 0.5 µg/mL (≈ 1.29 µM) | MIC (μg/mL) Mtb [1]: 4 µg/mL (≈ 10.3 µM) | MIC (μg/mL) Mtb Erdman [1]: 8 µg/mL (≈ 20.6 µM) | MIC [5]: 64 µg/mL (≈ 165 µM) | MIC [6]: 32 µg/mL (≈ 82.6 µM)

CCc1nc(N)nc(N)c1C#CC(C)c1cc2c(c(-c3cncn3C)c1)OCO2 (stereo not shown) [UCP1102]
MIC (Mtb 5): 8 µg/mL (≈ 20.5 µM) | MIC (Mtb 365): 8 µg/mL (≈ 20.5 µM) | MIC (Mtb 276): 4 µg/mL (≈ 10.2 µM) | MIC (Mtb 352): 4 µg/mL (≈ 10.2 µM) | MIC (Mtb 56): 8 µg/mL (≈ 20.5 µM) | MIC (Mtb C-31): 8 µg/mL (≈ 20.5 µM) | MIC [4]: 1 µg/mL (≈ 2.56 µM) | MIC (μg/mL) Mtb [1]: 2 µg/mL (≈ 5.12 µM) | MIC (μg/mL) Mtb Erdman [1]: 4 µg/mL (≈ 10.2 µM) | MIC [5]: 64 µg/mL (≈ 164 µM) | MIC [6]: 32 µg/mL (≈ 82 µM)

CCc1nc(N)nc(N)c1C#CCc1cc(-c2ccc(C(=O)O)cc2)ccc1OC [UCP1106]
MIC (Mtb 5): 8 µg/mL (≈ 19.9 µM) | MIC (Mtb 365): 4 µg/mL (≈ 9.94 µM) | MIC (Mtb 276): 16 µg/mL (≈ 39.8 µM) | MIC (Mtb 352): 16 µg/mL (≈ 39.8 µM) | MIC (Mtb 56): 16 µg/mL (≈ 39.8 µM) | MIC (Mtb C-31): > 32 µg/mL | MIC [4]: 8 µg/mL (≈ 19.9 µM) | MIC (μg/mL) Mtb [1]: 4 µg/mL (≈ 9.94 µM) | MIC (μg/mL) Mtb Erdman [1]: 16 µg/mL (≈ 39.8 µM) | MIC [5]: > 32 µg/mL | MIC [6]: > 32 µg/mL

CCc1nc(N)nc(N)c1C#C[C@H](C)c1cc(-c2ccc(C(=O)O)cc2)ccc1OC [UCP1163]
MIC (μg/mL) Mtb [1]: 16 µg/mL (≈ 38.4 µM)

CCc1nc(N)nc(N)c1C#C[C@@H](C)c1cc(-c2ccc(C(=O)O)cc2)ccc1OC [UCP1164]
MIC (μg/mL) Mtb [1]: 0.5 µg/mL (≈ 1.2 µM)

CCc1nc(N)nc(N)c1C#C[C@H](C)c1cc(OC)cc(-c2ccc(C(=O)O)cc2)c1 [UCP1172]
MIC (Mtb 5): 0.25 µg/mL (≈ 0.6 µM) | MIC (Mtb 365): < 0.03 µg/mL | MIC (Mtb 352): 0.06 µg/mL (≈ 0.144 µM) | MIC (Mtb 56): 0.06 µg/mL (≈ 0.144 µM) | MIC (Mtb C-31): 8 µg/mL (≈ 19.2 µM) | MIC (μg/mL) Mtb [1]: <0.03 µg/mL | MIC (μg/mL) Mtb Erdman [1]: <0.03 µg/mL

CCc1nc(N)nc(N)c1C#CCc1cc(OC)cc(-c2ccc(C(=O)O)cc2)c1 [UCP1175]
IC50 (MtbDHFR [3]; IC50 (nM) MtbDHFR): 460 ± 50 nM | MIC (Mtb 5): 2 µg/mL (≈ 4.97 µM) | MIC (Mtb 365): 0.125 µg/mL (≈ 0.311 µM) | MIC (Mtb 352): 0.5 µg/mL (≈ 1.24 µM) | MIC (Mtb 56): 0.5 µg/mL (≈ 1.24 µM) | MIC (Mtb C-31): 8 µg/mL (≈ 19.9 µM) | MIC (μg/mL) Mtb [1]: 0.125 µg/mL (≈ 0.311 µM) | MIC (μg/mL) Mtb Erdman [1]: 0.5 µg/mL (≈ 1.24 µM)

CCc1nc(N)nc(N)c1-c1ccc(Cl)cc1 [pyrimethamine]
inhibition of the growth of Mtb (Mtb): fail to inhibit the growth | inhibition of the MtbDHFR enzyme (MtbDHFR [2]): potent inhibitors
